The record followed here is patent publication US6352737B1, “Use of nanoscale sterols and sterol esters” (Cognis Deutschland GmbH, priority 1999, dated 2002).

This assay has as its system radioactive cholesterol. The experiment in a line: Hypocholesterolemic effect: content of radioactive cholesterol in blood of rats after oral gelatine capsule. The format is in vivo. Conditions: male rats, relative to blank group, mean of 10 animals; for Radioactivity After 3 h: blood 3 h after gelatine capsule (5% by weight sterol/ester, 0.5% by weight radioactively marked cholesterol) via stomach probe; for Radioactivity After 6 h: blood 6 h after gelatine capsule via stomach probe; for Radioactivity After 12 h: blood 12 h after gelatine capsule via stomach probe; for Radioactivity After 24 h: blood 24 h after gelatine capsule via stomach probe; for Radioactivity After 48 h: blood 48 h after gelatine capsule via stomach probe. As to the method:
Gelatine capsules (weight ca. 1.5 g) containing 5% by weight β-sitostanol or β-sitostanolester (nanoparticles encapsulated in a gelatine or chitosan matrix and non-nanoscale commercial products) and 0.5% by weight of radioactively marked cholesterol were prepared. To study the hypocholesterolemic effect, male rats (individual weight ca.200 g) were allowed no food overnight. The next day, a size-reduced gelatine capsule was inserted into each test animal via a stomach probe together with a little water containing sodium chloride. After 3, 6, 12, 24 and 48 h, blood was taken from the animals and the content of radioactive cholesterol was determined. The results, which represent the mean value of the measurements of 10 test animals, are set out in Table 2. The figures relating to the reduction in radioactivity are based on a blank group of test animals which were only given gelatine capsules containing 20% by weight of vitamin E and a corresponding quantity of radioactively marked cholesterol. Examples 1 and 2 correspond to the invention, Examples C1 and C2 are intended for comparison.

Turning to `CC[C@H](CC[C@@H](C)[C@H]1CC[C@H]2[C@@H]3CC[C@H]4C[C@@H](O)CC[C@]4(C)[C@H]3CC[C@]12C)C(C)C` [Example C1, β-Sitostanol], the “Radioactivity After 3 h” value was determined as 93 %-rel, the “Radioactivity After 6 h” value is on record as 83 %-rel, the “Radioactivity After 12 h” value worked out at 75 %-rel and the “Radioactivity After 24 h” value was determined as 50 %-rel. The “Radioactivity After 48 h” value was 32 %-rel.
Regarding `CCCCCCCCCCCCCCCCCC(=O)O[C@H]1CC[C@@]2(C)[C@@H](CC[C@@H]3[C@@H]2CC[C@]2(C)[C@@H]([C@H](C)CC[C@@H](CC)C(C)C)CC[C@@H]32)C1` [Example C2, β-Sitostanyl stearate], the “Radioactivity After 3 h” value was 90 %-rel, the “Radioactivity After 6 h” value came out at 80 %-rel, the “Radioactivity After 12 h” value is given as 71 %-rel and the “Radioactivity After 24 h” value came out at 44 %-rel. Besides, the “Radioactivity After 48 h” value turned out to be 26 %-rel.
